Experimental data as given in US20220008563A1, “RADIOLABELLED AND NONRADIOLABELLED PEGYLATED COMPOUNDS AND USES THEREOF” (The Regents of the University of California, priority 2020, published 2022).
Values belong to the compound of their own block, whether it stands above or below them.

Assays:
MAO-A = biological target: T1, MAO-A (Homo sapiens, UniProt P21397); test: Effect of drugs on the binding of [^18F]FAZIN3 in postmortem human brain sections; details: for selectivity of binding for MAO-A versus MAO-B: by use of clorgyline (MAO-A inhibitor) and deprenyl (MAO-B inhibitor)
T1 construct: tissue Banner Sun Health Research Institute; host or cells: postmortem human anterior cingulate / corpus callosum sections (CN, AD, PD subjects)
T1 sequence (P21397 1-527): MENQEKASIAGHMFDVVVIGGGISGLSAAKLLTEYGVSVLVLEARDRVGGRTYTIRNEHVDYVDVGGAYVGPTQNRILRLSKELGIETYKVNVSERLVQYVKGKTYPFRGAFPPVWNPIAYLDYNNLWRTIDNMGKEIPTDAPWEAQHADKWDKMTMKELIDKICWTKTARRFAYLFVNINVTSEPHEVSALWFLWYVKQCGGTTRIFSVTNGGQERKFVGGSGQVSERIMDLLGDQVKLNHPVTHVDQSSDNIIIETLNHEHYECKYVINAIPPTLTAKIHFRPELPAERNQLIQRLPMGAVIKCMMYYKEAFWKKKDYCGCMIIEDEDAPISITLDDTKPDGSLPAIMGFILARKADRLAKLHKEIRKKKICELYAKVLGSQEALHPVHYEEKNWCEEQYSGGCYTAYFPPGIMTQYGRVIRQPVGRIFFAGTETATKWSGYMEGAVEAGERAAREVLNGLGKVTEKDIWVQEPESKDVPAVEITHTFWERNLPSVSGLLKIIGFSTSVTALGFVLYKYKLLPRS
Experimental: MK-6240 (10 μM) was used since it is known to bind to Tau. […] The slides containing the sections (10 μm thick) were preincubated in PBS buffer for 15 minutes in eight different slide chambers (one total binding and seven with the different drugs). The preincubation PBS buffer was discarded and appropriate amount of each drug (dissolved in ethanol) was added to the chambers with the slides. […] The chambers were incubated at 25° C. for 1.25 h. The slides were then washed with cold PBS buffer twice, and cold water, respectively. The slides with the brain sections were air dried, exposed overnight on a phosphor film, and then placed on the Phosphor Autoradiographic Imaging System/Cyclone Storage Phosphor System (Packard Instruments Co).

Tau protein [1] = biological target: Tau protein (Homo sapiens, UniProt P10636); test: In vitro binding in human AD brain slices using [^125I]IPPI; details: [^125I]IPPI labeled human AD brain slices
Experimental: Assessing the binding specificity of Flotaza. In vitro binding affinity of Flotaza in human AD brain slices using [^3H]PIB for Aβ plaques and [^125I]IPPI for Tau were carried out. […] Thus, Flotaza is a selective Aβ plaque agent.

Aβ plaques [2] = test: Postmortem human brain autoradiography of [^18F]Flotaza in AD subjects; assay type: binding
Source text: Postmortem human brain autoradiography [^18F]Flotaza in AD subjects. Well characterized brain samples were obtained from Banner Health Research Institute. Brain slices from six AD subjects included anterior cingulate (gray matter, GM) and corpus callosum (white matter, WM) as shown for one subject in FIG. 24A. The AD brain sections of the six AD subjects were further confirmed to contain Aβ plaques in the GM regions by immunostaining with anti-Aβ Biolegend (known to stain Aβ1-16) as shown in FIG. 24B.
It must be noted that in these experiments, after [^18F]Flotaza binding, the slices were washed with 50% alcohol in PBS buffer.

human Aβ plaques = human Aβ plaques (Homo sapiens, UniProt P05067); test: In vitro binding affinity in human AD brain slices using [^3H]PIB; details: human AD brain slices (anterior cingulate, corpus callosum)
Experimental: Analytical thin-layer chromatography (TLC) was used to monitor reactions (Baker-flex, Phillipsburg, N.J., USA). RadioTLC were scanned on an AR-2000 imaging scanner (Eckart & Ziegler, Berlin, Germany). Electrospray mass spectra were obtained from a Model 7250 mass spectrometer (Micromass LCT). Proton NMR spectra were recorded on a Bruker OM EGA 500-MHz spectrometer. Tritium was assayed by using a Packard Tri-Carb Liquid scintillation counter with 65% efficiency. Human postmortem brain tissue samples were obtained from Banner Sun Health Research Institute, Sun City, Ariz. brain tissue repository for in vitro experiments. Age and gender matched AD brain and cognitively normal (CN) brain tissue samples selected for end-stage pathology (Braak & Braak stage of VI; Braak and Braak 1991). Human postmortem brain slices were obtained from chunks of frozen tissue on a Leica 1850 cryotome cooled to −20° C. Tritium and iodine-125, and fluorine-18 autoradiographic studies were carried out by exposing tissue samples on storage phosphor screens (Perkin Elmer Multisensitive, Medium MS and tritium sensitive phosphor screens). The apposed phosphor screens were read and analyzed by OptiQuant acquisition and analysis program of the Cyclone Storage Phosphor System (Packard Instruments Co., Boston, Mass.). […]

Aβ plaques [3] = details: hippocampal AD brain sections; cited from earlier work
Tau protein [4] = test: [^125I]IPPI / [^124I]IPPI autoradiography of postmortem AD brain slices; assay type: binding, human
Experimental: FIG. 18A-H: provides the results of [^125I]IPPI competitive binding assay with various inhibitors. (A) Postmortem human brain 10 μm thick sections (from two AD subjects, 11-107 and 11-38) of anterior cingulate (AC) grey matter (arrows showing GM) and corpus callosum (CC) white matter (WM). (B) [^125I]IPPI binding to grey matter, AC with low nonspecific binding in white matter, CC. […] (E) BrPPI, 10 μM effect on [^125I ]IPPI binding. (F) MK-6240, 10μM effect on [^125I]IPPI binding. (G) Immunostaining of 11-38 with Dako A0024 for total Tau; (i) picture of entire slice and (ii) magnification (x10) of box in (i). (H) Plot comparing GM and WM in the two AD subjects with different drugs.

Aβ plaques [5] = test: ^125I-IAZA brain autoradiography in postmortem human AD brain; assay type: binding; details: anterior cingulate
Source text: FIG. 22A-F provides the results of brain autoradiography in postmortem human brain from an Alzheimer patient using ^125I-IAZA and ^124I-IAZA. (A) AD brain slice showing gray matter (GM), anterior cingulate and white matter (WM) corpus callosum. […] (D) AD brain cortex slice showing gray matter on the left edges. (E)-(F) ^125I-IAZA binding in the outer regions containing gray matter which is consistent with Tau buildup.

human Aβ plaques, sequence (P05067 672-713): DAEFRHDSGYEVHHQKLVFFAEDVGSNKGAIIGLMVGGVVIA
Tau protein (Homo sapiens, UniProt P10636), sequence (P10636 with tags, fused parts or gaps): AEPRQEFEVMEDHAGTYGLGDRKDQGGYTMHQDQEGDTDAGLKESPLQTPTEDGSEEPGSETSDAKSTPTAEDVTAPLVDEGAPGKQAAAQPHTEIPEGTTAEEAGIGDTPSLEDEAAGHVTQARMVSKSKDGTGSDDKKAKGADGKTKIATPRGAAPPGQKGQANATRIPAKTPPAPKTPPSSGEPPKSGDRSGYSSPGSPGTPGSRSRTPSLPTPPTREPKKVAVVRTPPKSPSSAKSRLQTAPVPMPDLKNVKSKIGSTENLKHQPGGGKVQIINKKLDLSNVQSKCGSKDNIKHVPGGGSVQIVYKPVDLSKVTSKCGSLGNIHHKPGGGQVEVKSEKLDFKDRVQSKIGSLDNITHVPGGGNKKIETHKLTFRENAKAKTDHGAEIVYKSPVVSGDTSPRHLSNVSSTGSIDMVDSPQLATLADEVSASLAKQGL

selectivity of binding for MAO-A versus MAO-B (MAO-A): selective MAO-A binding
Compound: 4-O-[^18F]FluoroPEG3-2-(1H-pyrrolo[2,3-c]pyridine-1-yl)pyridine [[^18F]FAZIN3]

Compound: FCCOCCOCCOc1ccnc(-n2ccc3ccncc32)c1 [FAZIN3, 4-O-FluoroPEG3-2-(1H-pyrrolo[2,3-c]pyridine-1-yl)pyridine]
selectivity of binding for MAO-A versus MAO-B (MAO-A): selectively bound to MAO-A

effect on the binding of [^125I]IPPI (Tau protein [1]): did not have any significant effect
Compound: CN(C)c1ccc(N=Nc2ccc(OCCOCCOCCF)cc2)cc1 [Flotaza]

displacement (inhibition) of [^18F]FAZIN3 binding (MAO-A; drug 10 μM, human brain sections): did not have much effect
Compound: Nc1c(F)ccc2cnc(-n3ccc4ccncc43)cc12 [MK-6240, reference compound]

Compound: CNc1ccc(-c2nc3ccc(O)cc3s2)cc1 [PIB, reference compound]
effect on grey matter binding of [^18F]Flotaza (Aβ plaques [2]; AD brain sections treated with the drug): significantly reduced

Compound: CNc1ccc(N=Nc2ccc(N(C)C)cc2)cc1 [TAZA]
Ki (human Aβ plaques): 0.54 nM

Compound: [11CH3]Nc1ccc(-c2nc3ccc(O)cc3s2)cc1 [[^11C]PIB]
GM/WM ratios (Aβ plaques [3]): lower GM/WM ratios

binding in the grey matter regions of AD subjects (Aβ plaques [2]; anterior cingulate, AD subjects): Extensive binding | ratio between gray matter and white matter binding (Aβ plaques [2]; six AD subjects, slices washed with 50% alcohol in PBS buffer): > 100
Compound: CN(C)c1ccc(N=Nc2ccc(OCCOCCOCC[18F])cc2)cc1 [[^18F]Flotaza]

Compound: [125I]c1ccc2cnc(-n3ccc4ccncc43)cc2c1 [[^125I]IPPI, 6-[^125I]iodo-3-(1H-pyrrolo[2,3-c]pyridine-1-yl)isoquinoline]
sensitivity of binding to MAO inhibitors (Tau protein [4]; MAO inhibitors at <1 μM concentrations): resistance to MAO inhibitors | binding to Tau protein / neurofibrillary tangles in Alzheimer's disease brain grey matter (Tau protein [4]; postmortem AD brain slices): Excellent binding

Compound: CN(C)c1ccc(N=Nc2ccc([125I])cc2)cc1 [^125I-IAZA]
binding in gray matter of AD brain slices (Aβ plaques [5]): binding in the gray matter regions
